As a reminder, the MIC is the lowest concentration that inhibits growth of the organism.

Results on 27 compounds are retold here after ChEMBL document CHEMBL1949623, “Camphorsulfonic acid catalysed facile tandem double Friedlander annulation protocol for the synthesis of phenoxy linked bisquinoline derivatives and discovery of antitubercular agents” (Bioorg Med Chem Lett, 2012).

SMILES strings stand for the structures. Converted amounts (≈) assume the structure as drawn.

The first experiment deals with Mycobacterium tuberculosis. The experiment can be described thus: Ratio of Ethambutol MIC to compound MIC for multi-drug-resistant Mycobacterium tuberculosis H37Rv clinical isolate. Type of experiment: functional.
Settings: not given
Turning to `Clc1ccc2nc(-c3ccc(Oc4c(-c5ccc(Br)cc5)nc5ccc(Cl)cc5c4-c4ccccc4)cc3)cc(-c3ccccc3)c2c1`, the Ratio was found to be 3.45.

The test system of a further experiment is Mycobacterium tuberculosis. The experiment can be described thus: Antitubercular activity against multi-drug-resistant Mycobacterium tuberculosis H37Rv clinical isolate after 28 days by 10 fold serial dilution method. It counts as functional. To be noted: 672 h.
For `c1ccc(-c2nc3ccccc3c(-c3ccccc3)c2Oc2ccc(-c3cc(-c4ccccc4)c4ccccc4n3)cc2)cc1`, 43.4 µM (≈ 25 µg/mL) was the least that counted as inhibitory (MIC).
`Cc1ccc(-c2nc3ccccc3c(-c3ccccc3)c2Oc2ccc(-c3cc(-c4ccccc4)c4ccccc4n3)cc2)cc1` yielded an MIC of 42.3 µM (≈ 25 µg/mL).
Compound `Clc1ccc(-c2nc3ccccc3c(-c3ccccc3)c2Oc2ccc(-c3cc(-c4ccccc4)c4ccccc4n3)cc2)cc1` showed an MIC of 20.5 µM (≈ 12.5 µg/mL).
Compound `Brc1ccc(-c2nc3ccccc3c(-c3ccccc3)c2Oc2ccc(-c3cc(-c4ccccc4)c4ccccc4n3)cc2)cc1` displayed an MIC of 19.1 µM (≈ 12.5 µg/mL).
Compound `COc1ccc(-c2nc3ccccc3c(-c3ccccc3)c2Oc2ccc(-c3cc(-c4ccccc4)c4ccccc4n3)cc2)cc1` registered a minimal inhibitory concentration (MIC) of 41.2 µM (≈ 25 µg/mL).
In the case of `c1ccc(-c2cc(-c3ccc(Oc4c(-c5cccc6ccccc56)nc5ccccc5c4-c4ccccc4)cc3)nc3ccccc23)cc1`, it took 39.8 µM (≈ 24.9 µg/mL) to inhibit growth (MIC).
`c1ccc(-c2cc(-c3ccc(Oc4c(-c5ccc6ccccc6c5)nc5ccccc5c4-c4ccccc4)cc3)nc3ccccc23)cc1` yielded an MIC of 39.9 µM (≈ 25 µg/mL).
Compound `c1ccc(-c2ccc(-c3nc4ccccc4c(-c4ccccc4)c3Oc3ccc(-c4cc(-c5ccccc5)c5ccccc5n4)cc3)cc2)cc1` had a minimum inhibitory concentration (MIC) of 19.1 µM (≈ 12.5 µg/mL).
With `Clc1cccc(-c2nc3ccccc3c(-c3ccccc3)c2Oc2ccc(-c3cc(-c4ccccc4)c4ccccc4n3)cc2)c1`, the MIC is 20.5 µM (≈ 12.5 µg/mL).
`Brc1cccc(-c2nc3ccccc3c(-c3ccccc3)c2Oc2ccc(-c3cc(-c4ccccc4)c4ccccc4n3)cc2)c1` gave an MIC of 4.7 µM (≈ 3.08 µg/mL).
`COc1cccc(-c2nc3ccccc3c(-c3ccccc3)c2Oc2ccc(-c3cc(-c4ccccc4)c4ccccc4n3)cc2)c1` came in with a minimum inhibitory concentration (MIC) of 41.2 µM (≈ 25 µg/mL).
Consider `Clc1ccc2nc(-c3ccc(Oc4c(-c5ccccc5)nc5ccc(Cl)cc5c4-c4ccccc4)cc3)cc(-c3ccccc3)c2c1`, for which the minimal inhibitory concentration (MIC) came out at 19.4 µM (≈ 12.5 µg/mL).
Consider `Cc1ccc(-c2nc3ccc(Cl)cc3c(-c3ccccc3)c2Oc2ccc(-c3cc(-c4ccccc4)c4cc(Cl)ccc4n3)cc2)cc1`, for which 37.9 µM (≈ 25 µg/mL) was the least that counted as inhibitory (MIC).
For the compound `Clc1ccc(-c2nc3ccc(Cl)cc3c(-c3ccccc3)c2Oc2ccc(-c3cc(-c4ccccc4)c4cc(Cl)ccc4n3)cc2)cc1`, the MIC was 4.6 µM (≈ 3.13 µg/mL).
Still for that read-out and setting: in the case of `Clc1ccc2nc(-c3ccc(Oc4c(-c5ccc(Br)cc5)nc5ccc(Cl)cc5c4-c4ccccc4)cc3)cc(-c3ccccc3)c2c1` it was 2.2 µM (≈ 1.59 µg/mL).
The same measure, in the same setting: the value for `Clc1ccc2nc(-c3ccc(Oc4c(-c5ccc6ccccc6c5)nc5ccc(Cl)cc5c4-c4ccccc4)cc3)cc(-c3ccccc3)c2c1` was 35.9 µM (≈ 25 µg/mL); that for `Clc1ccc2nc(-c3ccc(Oc4c(-c5cccc(Br)c5)nc5ccc(Cl)cc5c4-c4ccccc4)cc3)cc(-c3ccccc3)c2c1` was 1.1 µM (≈ 0.797 µg/mL).
Same read-out and setting: the value for `CC(=O)c1ccc(Oc2c(-c3ccccc3)nc3ccc(Cl)cc3c2-c2ccccc2)cc1` was 55.6 µM (≈ 25 µg/mL); that for `CC(=O)c1ccc(Oc2c(-c3ccc(C)cc3)nc3ccc(Cl)cc3c2-c2ccccc2)cc1` was 53.8 µM (≈ 25 µg/mL).
Take `CC(=O)c1ccc(Oc2c(-c3ccc(Cl)cc3)nc3ccc(Cl)cc3c2-c2ccccc2)cc1`: 51.6 µM (≈ 25 µg/mL) was the least that counted as inhibitory (MIC).
Consider `CC(=O)c1ccc(Oc2c(-c3ccc(Br)cc3)nc3ccc(Cl)cc3c2-c2ccccc2)cc1`, for which the minimum inhibitory concentration (MIC) came to 47.3 µM (≈ 25 µg/mL).
Same read-out and setting: the value for `CC(=O)c1ccc(Oc2c(-c3ccc4ccccc4c3)nc3ccc(Cl)cc3c2-c2ccccc2)cc1` was 50 µM (≈ 25 µg/mL); that for `CC(=O)c1ccc(Oc2c(-c3cccc(Br)c3)nc3ccc(Cl)cc3c2-c2ccccc2)cc1` was 11.8 µM (≈ 6.24 µg/mL).
The compound `CC[C@@H](CO)NCCN[C@@H](CC)CO` [ETHAMBUTOL] displayed a minimal inhibitory concentration (MIC) of 7.6 µM (≈ 1.55 µg/mL).
For `NNC(=O)c1ccncc1` [ISONIAZID], the MIC turned out to be 0.4 µM (≈ 0.0549 µg/mL).
For `NC(=O)c1cnccn1` [PYRAZINAMIDE], the MIC worked out at 50.8 µM (≈ 6.25 µg/mL).
As for `CO[C@H]1/C=C/O[C@@]2(C)Oc3c(C)c(O)c4c(O)c(c(/C=N/N5CCN(C)CC5)c(O)c4c3C2=O)NC(=O)/C(C)=C\C=C\[C@H](C)[C@H](O)[C@@H](C)[C@@H](O)[C@@H](C)[C@H](OC(C)=O)[C@@H]1C` [RIFAMPIN], the minimal inhibitory concentration (MIC) was 0.1 µM (≈ 0.0823 µg/mL).

Another experiment relates to Mycobacterium tuberculosis. The experiment is described as follows: Ratio of Ciprofloxacin MIC to compound MIC for multi-drug-resistant Mycobacterium tuberculosis H37Rv clinical isolate. Type of experiment: functional.
Settings: not given
Turning to `Clc1ccc2nc(-c3ccc(Oc4c(-c5ccc(Br)cc5)nc5ccc(Cl)cc5c4-c4ccccc4)cc3)cc(-c3ccccc3)c2c1`, the Ratio came to 2.14.
The same measure, in the same setting: in the case of `Clc1ccc2nc(-c3ccc(Oc4c(-c5cccc(Br)c5)nc5ccc(Cl)cc5c4-c4ccccc4)cc3)cc(-c3ccccc3)c2c1` it was 4.27.
